# Legend:
# Assay in all cases: relative viability (nuclei count vs DMSO), 5 days (fraction); higher = more cells survive
# [1] = compound: C1=CC2=NC=CN=C2C=C1/C=C/3\C(=O)NC(=O)S3 + CC(=O)c1c(C)c2cnc(Nc3ccc(N4CCNCC4)cn3)nc2n(C2CCCC2)c1=O [Palbociclib] (partner 0.5 µM)
# Method in brief: (§1)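 Relative viability is defined as nuclei in treated wells over nuclei in vehicle wells. Duplicate plates were run and medians reported. Lung cancer cell lines in 1536-well plates were dosed by pin tool one day after seeding, with one drug or with a fixed anchor-drug dose plus five library-drug doses (not always all listed) in √10 steps, and nuclei were counted after 5 days.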
# BGJ398 + Palbociclib = compound: CCN1CCN(c2ccc(Nc3cc(N(C)C(=O)Nc4c(Cl)c(OC)cc(OC)c4Cl)ncn3)cc2)CC1 [BGJ398] + CC(=O)c1c(C)c2cnc(Nc3ccc(N4CCNCC4)cn3)nc2n(C2CCCC2)c1=O [Palbociclib] (partner 0.5 µM)
# Method in brief: as §1
# BGJ398 + Pictilisib = compound: CCN1CCN(c2ccc(Nc3cc(N(C)C(=O)Nc4c(Cl)c(OC)cc(OC)c4Cl)ncn3)cc2)CC1 [BGJ398] + CS(=O)(=O)N1CCN(Cc2cc3nc(-c4cccc5[nH]ncc45)nc(N4CCOCC4)c3s2)CC1 [Pictilisib] (partner 1 µM)
# Method in brief: as §1
# BGJ398 + Olaparib = compound: CCN1CCN(c2ccc(Nc3cc(N(C)C(=O)Nc4c(Cl)c(OC)cc(OC)c4Cl)ncn3)cc2)CC1 [BGJ398] + O=C(c1cc(Cc2n[nH]c(=O)c3ccccc23)ccc1F)N1CCN(C(=O)C2CC2)CC1 [Olaparib] (partner 8 µM)
# Method in brief: as §1
Cell Line,relative viability ([1]; first compound 0.02 µM),relative viability ([1]; first compound 0.06325 µM),relative viability ([1]; first compound 0.2 µM),relative viability ([1]; first compound 0.6325 µM),relative viability ([1]; first compound 2 µM),relative viability (BGJ398 + Palbociclib; first compound 0.01 µM),relative viability (BGJ398 + Palbociclib; first compound 0.03162 µM),relative viability (BGJ398 + Palbociclib; first compound 0.1 µM),relative viability (BGJ398 + Palbociclib; first compound 0.3162 µM),relative viability (BGJ398 + Palbociclib; first compound 1 µM),relative viability (BGJ398 + Pictilisib; first compound 0.01 µM),relative viability (BGJ398 + Pictilisib; first compound 0.03162 µM),relative viability (BGJ398 + Pictilisib; first compound 0.1 µM),relative viability (BGJ398 + Pictilisib; first compound 0.3162 µM),relative viability (BGJ398 + Pictilisib; first compound 1 µM),relative viability (BGJ398 + Olaparib; first compound 0.01 µM),relative viability (BGJ398 + Olaparib; first compound 0.03162 µM),relative viability (BGJ398 + Olaparib; first compound 0.1 µM),relative viability (BGJ398 + Olaparib; first compound 0.3162 µM),relative viability (BGJ398 + Olaparib; first compound 1 µM)
NCI-H1651,0.495,0.503,0.507,0.515,0.453,0.507,0.561,0.554,0.54,0.498,0.46,0.625,0.574,0.507,0.546,0.183,0.169,0.188,0.165,0.162
NCI-H1666,0.608,0.749,0.629,0.651,0.675,0.659,0.631,0.666,0.641,0.638,0.511,0.461,0.536,0.374,0.329,0.759,0.77,0.81,0.725,0.679
NCI-H1734,0.328,,0.333,0.352,0.318,0.329,0.352,0.355,0.359,0.355,0.421,0.493,0.451,0.407,0.476,0.504,0.622,0.627,0.609,0.607
NCI-H1755,0.428,0.429,0.461,0.432,0.446,0.464,0.473,0.461,0.468,0.441,0.443,0.446,0.361,0.349,0.285,0.813,0.906,0.904,0.855,0.912
NCI-H1792,0.652,0.471,0.663,0.595,0.425,0.637,0.733,0.61,0.655,0.532,0.229,0.32,0.26,0.238,0.138,0.494,0.351,0.281,0.607,0.282
NCI-H1793,0.289,0.296,0.282,0.336,0.288,0.321,0.271,0.286,0.237,0.309,0.296,,0.265,0.203,0.196,0.828,0.721,1.02,0.824,0.739
NCI-H1915,0.538,0.578,0.561,0.512,0.533,0.525,0.533,0.532,0.529,0.556,0.913,0.904,0.906,1.03,0.97,0.231,0.285,0.252,0.256,0.246
NCI-H1944,0.287,0.289,0.352,0.312,0.331,0.29,0.333,0.347,0.337,0.344,0.36,0.348,0.323,0.333,0.311,0.432,0.416,0.425,0.385,0.445
NCI-H1975,0.465,0.683,0.563,0.56,0.394,0.575,0.678,0.672,0.546,0.417,0.296,0.296,0.269,0.321,0.252,0.809,0.856,0.887,0.825,0.781
NCI-H1993,0.623,0.68,0.58,0.603,0.331,0.674,0.639,0.655,0.692,0.724,0.744,0.766,0.722,0.82,0.685,1.02,1.08,1.01,1.02,0.997
NCI-H2009,0.241,0.241,0.216,0.171,0.16,0.268,0.222,0.197,0.268,0.241,0.803,0.955,0.731,0.842,0.847,0.614,0.759,0.697,0.718,0.682
NCI-H2023,0.405,0.408,0.314,0.337,0.27,0.341,0.493,0.285,0.456,0.404,0.226,0.219,0.173,0.244,0.16,0.486,0.465,0.513,0.463,0.503
NCI-H2085,0.494,0.436,0.485,0.448,0.46,0.494,0.476,0.472,0.447,0.521,0.456,0.44,0.372,0.508,0.394,0.759,0.773,0.711,0.693,0.796
NCI-H2087,0.195,0.229,0.215,0.268,0.222,0.266,0.224,0.204,0.282,0.184,0.669,0.994,0.966,0.85,1.08,0.46,0.744,0.574,0.609,0.613
NCI-H2126,0.329,0.404,0.358,0.369,0.339,0.374,0.344,0.36,0.351,0.335,0.528,0.461,0.52,0.495,0.418,0.953,0.864,0.964,0.865,0.918
NCI-H2170,0.35,0.448,0.405,0.374,0.374,0.426,0.389,0.416,0.427,0.39,0.348,0.279,0.311,0.287,0.288,0.605,0.584,0.633,0.57,0.553

# From the supplement of paper PMC10307832
